# In patent publication US20240376074A1, “NAMPT INHIBITORS AND USES THEREOF” (Remedy Plan, Inc., priority 2021, published 2024):
# Biological target: T1, NAMPT (Homo sapiens, UniProt P43490)
# T1 construct: purchased Abcam ab221819
# Test: NAMPT Activity Assay (Abcam #ab221819)
# Type: biochemical
# Conditions: purified NAMPT, percent inhibition from OD450 nm; compound concentration not given
# Procedure: The NAMPT Activity Assay (Abcam #ab221819) was performed following manufacturers two-step reaction protocol. Briefly, compounds were added to a clear 96-well plate using the HP D300e Digital Dispenser. Purified NAMPT was added to all wells except the No NAMPT controls. Reaction Mix #1 was added to each well and the plate was incubated at 30*C for 1 hr followed by the addition of Reaction Mix #2. Absorbance was measured at OD450 nm using a multimode plate reader. Readings were recorded for 5 minutes and percent inhibition was calculated using: (1-(OD450 nm compound/OD450nm no drug))*100.
# T1 sequence (P43490 whole entry): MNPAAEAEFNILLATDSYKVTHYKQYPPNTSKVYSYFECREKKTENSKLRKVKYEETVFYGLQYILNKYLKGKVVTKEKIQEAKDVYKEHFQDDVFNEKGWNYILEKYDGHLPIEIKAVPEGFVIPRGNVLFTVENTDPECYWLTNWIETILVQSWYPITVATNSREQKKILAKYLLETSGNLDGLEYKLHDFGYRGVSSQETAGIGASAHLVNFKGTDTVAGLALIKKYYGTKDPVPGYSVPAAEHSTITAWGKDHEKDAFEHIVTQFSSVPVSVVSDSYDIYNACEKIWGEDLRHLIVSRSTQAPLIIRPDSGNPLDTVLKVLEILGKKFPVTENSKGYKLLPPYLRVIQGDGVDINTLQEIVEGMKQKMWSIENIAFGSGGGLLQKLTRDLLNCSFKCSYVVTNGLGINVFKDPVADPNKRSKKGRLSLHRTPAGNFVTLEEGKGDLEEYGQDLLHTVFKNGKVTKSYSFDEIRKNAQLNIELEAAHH
row,NAMPT Inhibition Code*,Structure (SMILES)
1,B (B = >33 to <66% inhibition),"CC(=O)N(CC1CC1)c1ccc(-c2ccc(C(=O)NCc3ccc[nH]3)cn2)cc1Cl [I-T2121, 6-[4-[Acetyl(cyclopropylmethyl)amino]-3-chloro-phenyl]-N-(1H-pyrrol-2-ylmethyl)pyridine-3-carboxamide]"
2,C (C = ≥66% inhibition),"CC(=O)N(CC1CC1)c1ccc(-c2ccc(C(=O)NCCCc3cn[nH]c3)cn2)cc1Cl [I-T2269, 6-[4-[Acetyl(cyclopropylmethyl)amino]-3-chloro-phenyl]-N-[3-(1H-pyrazol-4-yl)propyl]pyridine-3-carboxamide]"
3,C (C = ≥66% inhibition),"CC(=O)N(CC1CC1)c1ccc(-c2ccc(C(=O)NCC3CCCCC3)cn2)cc1Cl [I-T2337, 6-[4-[acetyl(cyclopropylmethyl)amino]-3-chloro-phenyl]-N-(cyclohexylmethyl)pyridine-3-carboxamide]"
4,B (B = >33 to <66% inhibition),"CC(=O)N(CC1CC1)c1ccc(-c2ccc(C(=O)N3Cc4ccccc4C3)cn2)cc1Cl [I-T2270, N-[2-Chloro-4-[5-(isoindoline-2-carbonyl)-2-pyridyl]phenyl]-N-(cyclopropylmethyl)acetamide]"
5,A (*A = <33% inhibition),"CC(=O)N(CC1CC1)c1ccc(-c2ccc(C(=O)NCc3cncs3)cn2)cc1Cl [I-T2355, 6-[4-[acetyl(cyclopropylmethyl)amino]-3-chloro-phenyl]-N-(thiazol-5-ylmethyl)pyridine-3-carboxamide]"
6,C (C = ≥66% inhibition),"CC(=O)N(CC1CC1)c1ccc(-c2ccc(C(=O)NCCc3cccnc3)cn2)cc1C(F)(F)F [I-T2303, 6-[4-[Acetyl(cyclopropylmethyl)amino]-3-(trifluoromethyl)phenyl]-N-[2-(3-pyridyl)ethyl]pyridine-3-carboxamide]"
7,C (C = ≥66% inhibition),"CC(=O)N(CC1CC1)c1ccc(-c2ccc(C(=O)NCc3cccc(F)c3)cn2)cc1Cl [I-T2341, 6-[4-[acetyl(cyclopropylmethyl)amino]-3-chloro-phenyl]-N-[(3-fluorophenyl)methyl]pyridine-3-carboxamide]"
8,C (C = ≥66% inhibition),"CC(=O)N(CC(F)F)c1ccc(-c2ccc(C(=O)NCCc3cccnc3)cn2)cc1Cl [I-T2205, 6-[4-[Acetyl(2,2-difluoroethyl)amino]-3-chloro-phenyl]-N-[2-(3-pyridyl)ethyl]pyridine-3-carboxamide]"
9,C (C = ≥66% inhibition),"CC(=O)N(CC1CC1)c1ccc(-c2ccc(NC(=O)/C=C/c3ccccc3)cn2)cc1Cl [I-T2329, (E)-N-[6-[4-[acetyl(cyclopropylmethyl)amino]-3-chloro-phenyl]-3-pyridyl]-3-phenyl-prop-2-enamide]"
10,C (C = ≥66% inhibition),"CC(=O)N(CC1CC1)c1ccc(-c2ccc(C(=O)NCCCn3ccnc3)cn2)cc1Cl [I-T2128, 6-[4-[Acetyl(cyclopropylmethyl)amino]-3-chloro-phenyl]-N-(3-imidazol-1-ylpropyl)pyridine-3-carboxamide]"
11,C (C = ≥66% inhibition),"CC(=O)N(CC(F)F)c1ccc(-c2ccc(NC(=O)Cc3cccnc3)cn2)cc1Cl [I-T2290, N-[6-[4-[acetyl(2,2-difluoroethyl)amino]-3-chloro-phenyl]-3-pyridyl]-2-(3-pyridyl) acetamide]"
12,C (C = ≥66% inhibition),"CC(=O)N(CC1CC1)c1ccc(-c2ccc(C(=O)NCCc3cccc(F)c3)cn2)cc1Cl [I-T2342, 6-[4-[acetyl(cyclopropylmethyl)amino]-3-chloro-phenyl]-N-[2-(3-fluorophenyl)ethyl]pyridine-3-carboxamide]"
13,C (C = ≥66% inhibition),"CC(=O)N(CC1CC1)c1ccc(-c2ccc(C(=O)NCCc3ccncc3)cn2)cc1Cl [I-T2308, 6-[4-[Acetyl(cyclopropylmethyl)amino]-3-chloro-phenyl]-N-[2-(4-pyridyl)ethyl]pyridine-3-carboxamide]"
14,C (C = ≥66% inhibition),"CC(=O)N(CC1CC1)c1ccc(-c2ccc(C(=O)NCCc3cccnc3)cn2)cc1F [I-T2301, 6-[4-[acetyl(cyclopropylmethyl)amino]-3-fluoro-phenyl]-N-[2-(3-pyridyl)ethyl]pyridine-3-carboxamide]"
15,C (C = ≥66% inhibition),"CC(=O)N(CC1CC1)c1ccc(-c2ccc(C(=O)NCCCc3cn[nH]c3)cn2)cc1F [I-T2302, 6-[4-[acetyl(cyclopropylmethyl)amino]-3-fluoro-phenyl]-N-[3-(1H-pyrazol-4-yl)propyl]pyridine-3-carboxamide]"
16,C (C = ≥66% inhibition),"COC(=O)c1cc(-c2ccc(C(=O)NCCc3cn[nH]c3)cn2)ccc1N(CC1CC1)C(C)=O [I-T2297, Methyl 2-[acetyl(cyclopropylmethyl)amino]-5-[5-[2-(1H-pyrazol-4-yl)ethylcarbamoyl]-2-pyridyl]benzoate]"
17,A (*A = <33% inhibition),"CC(=O)N(CC1CC1)c1ccc(-c2ccc(C(=O)NCC3CCCCO3)cn2)cc1Cl (stereo not drawn) [I-T2340, 6-[4-[acetyl(cyclopropylmethyl)amino]-3-chloro-phenyl]-N-(tetrahydropyran-2-ylmethyl)pyridine-3-carboxamide]"
18,A (*A = <33% inhibition),"CC(=O)N(CC(F)F)c1ccc(-c2ccc(C(=O)NCc3ccccc3)cn2)cc1Cl [I-T2284, 6-[4-[Acetyl(2,2-difluoroethyl)amino]-3-chloro-phenyl]-N-benzyl-pyridine-3-carboxamide]"
19,A (*A = <33% inhibition),"CC(=O)N(CC1CC1)c1ccc(-c2ccc(C(=O)NCCN3CCCCC3)cn2)cc1Cl [I-T2339, 6-[4-[acetyl(cyclopropylmethyl)amino]-3-chloro-phenyl]-N-[2-(1-piperidyl)ethyl]pyridine-3-carboxamide]"
20,C (C = ≥66% inhibition),"CC(=O)N(CC(F)F)c1ccc(-c2ccc(C(=O)NCCCn3ccnc3)cn2)cc1Cl [I-T2288, 6-[4-[Acetyl(2,2-difluoroethyl)amino]-3-chloro-phenyl]-N-(3-imidazol-1-ylpropyl)pyridine-3-carboxamide]"
21,C (C = ≥66% inhibition),"CC(=O)N(CC(F)F)c1ccc(-c2ccc(NC(=O)/C=C/c3cccnc3)cn2)cc1Cl [I-T2293, (E)-N-[6-[4-[acetyl(2,2-difluoroethyl)amino]-3-chloro-phenyl]-3-pyridyl]-3-(3-pyridyl)prop-2-enamide]"
22,C (C = ≥66% inhibition),"CC(=O)N(CC1CC1)c1ccc(-c2ccc(C(=O)NCCc3cccnc3)cn2)cc1C#N [I-T2305, 6-[4-[Acetyl(cyclopropylmethyl)amino]-3-cyano-phenyl]-N-[2-(3-pyridyl)ethyl]pyridine-3-carboxamide]"
23,B (B = >33 to <66% inhibition),"CC(=O)N(CC1CC1)c1ccc(-c2ccc(C(=O)NCc3cccnn3)cn2)cc1Cl [I-T2146, 6-[4-[Acetyl(cyclopropylmethyl)amino]-3-chloro-phenyl]-N-(pyridazin-3-ylmethyl)pyridine-3-carboxamide]"
24,C (C = ≥66% inhibition),"CC(=O)N(CC1CC1)c1ccc(-c2ccc(NC(=O)Cc3ccc(Cl)nc3)cn2)cc1Cl [I-T2391, N-[6-[4-[acetyl(cyclopropylmethyl)amino]-3-chloro-phenyl]-3-pyridyl]-2-(6-chloro-3-pyridyl)acetamide]"
25,C (C = ≥66% inhibition),"CC(=O)N(CC1CC1)c1ccc(-c2ccc(C(=O)NCc3ccc(C#N)nc3)cn2)cc1Cl [I-T2371, 6-[4-[acetyl(cyclopropylmethyl)amino]-3-chloro-phenyl]-N-[(6-cyano-3-pyridyl)methyl]pyridine-3-carboxamide]"
26,A (*A = <33% inhibition),"CC(=O)N(CC1CC1)c1ccc(-c2ccc(C(=O)NCC3CCCC34CC4)cn2)cc1Cl (stereo not drawn) [I-T2343, 6-[4-[acetyl(cyclopropylmethyl)amino]-3-chloro-phenyl]-N-(spiro[2.4]heptan-7-ylmethyl)pyridine-3-carboxamide]"
27,C (C = ≥66% inhibition),"CC(=O)N(CC1CC1)c1ccc(-c2ccc(C(=O)NCCCc3cn[nH]c3)cn2)cc1C#N [I-T2306, 6-[4-[acetyl(cyclopropylmethyl)amino]-3-cyano-phenyl]-N-[3-(1H-pyrazol-4-yl)propyl]pyridine-3-carboxamide]"
28,A (*A = <33% inhibition),"CC(=O)N(CC1CC1)c1ccc(-c2ccc(C(=O)NCC3CCCN(C)C3)cn2)cc1Cl (stereo not drawn) [I-T2338, 6-[4-[acetyl(cyclopropylmethyl)amino]-3-chloro-phenyl]-N-[(1-methyl-3-piperidyl)methyl]pyridine-3-carboxamide]"
29,A (*A = <33% inhibition),"CC(=O)N(CC1CC1)c1ccc(-c2ccc(C(=O)N3Cc4ccncc4C3)cn2)cc1Cl [I-T2138, N-[2-Chloro-4-[5-(1,3-dihydropyrrolo[3,4-c]pyridine-2-carbonyl)-2-pyridyl]phenyl]-N-(cyclopropylmethyl)acetamide]"
30,C (C = ≥66% inhibition),"COC(=O)c1cc(-c2ccc(C(=O)NCCCn3ccnc3)cn2)ccc1N(CC1CC1)C(C)=O [I-T2300, Methyl 2-[acetyl(cyclopropylmethyl)amino]-5-[5-(3-imidazol-1-ylpropylcarbamoyl)-2-pyridyl]benzoate]"
